This is an account of results in paper PMC4414180, “SKI2162, an inhibitor of the TGF-β type I receptor (ALK5), inhibits radiation-induced fibrosis in mice” (Oncotarget, 2015).

The target of experiment [1] is T1, p38 MAPK (Homo sapiens, UniProt Q16539).
T1 construct: GST/histidine tag; made in house; host or cells: insect cells
Kind of experiment: p38 MAPK selectivity, radioisotope-based (33P) kinase assay. The format is biochemical. The conditions noted are these: Supplementary Table 1, unit inferred. On the procedure:
(§1) The kinase activity of ALK5, ALK1, and p38 MAPK were assessed by measuring radiolabelled phosphate (^33P) incorporation into casein. ALK1 and p38 MAPK are closely related to ALK5, and were used for comparison with ALK5 in a SKI2162 selectivity study. IC50 values were calculated from dose–response curves. […]
(§2) www.impactjournals.com/oncotarget/ Oncotarget, Advance Publications 2014 SUPPLEMENTARY METHODS AND MATERIALS
(§3) Cell culture and reagents ACC-3′ (reverse). All samples were normalized to A human keratinocyte cell line (HaCaT) and GAPDH and expressed as the fold induction. Relative an SV40-transformed human fibroblast cell line expression levels were calculated using the comparative (WI38VA13) were cultured in Minimum Essential threshold method. All reactions were done in triplicate.
(§4) Media (Gibco/Life Technologies, USA) or in Dulbecco’s Histopathologic evaluation and fibrosis-related Modified Eagle’s Medium (Gibco/Life Technologies, gene expression in RIF tissues USA), respectively, with 10% fetal bovine serum (Gibco/
(§5) Life Technologies, USA), in a humidified 5% CO2 The skin and soft tissue of the irradiated leg was […]

The target of experiment [2] is T2, ALK1 (Homo sapiens, UniProt P37023).
T2 construct: GST/histidine tag; made in house; host or cells: insect cells
T2 sequence (P37023 22-503, species assumed): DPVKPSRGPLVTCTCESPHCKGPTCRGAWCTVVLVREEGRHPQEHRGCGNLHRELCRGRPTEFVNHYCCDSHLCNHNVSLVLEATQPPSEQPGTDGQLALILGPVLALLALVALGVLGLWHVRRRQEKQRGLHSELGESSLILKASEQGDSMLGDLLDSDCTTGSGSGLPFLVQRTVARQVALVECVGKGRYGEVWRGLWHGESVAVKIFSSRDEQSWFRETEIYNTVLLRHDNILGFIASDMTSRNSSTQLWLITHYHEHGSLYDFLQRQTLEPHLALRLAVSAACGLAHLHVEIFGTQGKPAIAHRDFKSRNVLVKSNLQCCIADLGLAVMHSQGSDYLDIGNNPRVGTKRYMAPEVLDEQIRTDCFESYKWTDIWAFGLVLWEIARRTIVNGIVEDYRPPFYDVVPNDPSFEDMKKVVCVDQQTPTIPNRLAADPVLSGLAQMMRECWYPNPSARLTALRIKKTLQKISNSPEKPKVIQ
Kind of experiment: ALK1 selectivity, radioisotope-based (33P) kinase assay. The note with it: Supplementary Table 1, unit inferred. The format is biochemical. On the procedure:
as §1, §2, §3, §4, §5

T1 sequence (Q16539 whole entry): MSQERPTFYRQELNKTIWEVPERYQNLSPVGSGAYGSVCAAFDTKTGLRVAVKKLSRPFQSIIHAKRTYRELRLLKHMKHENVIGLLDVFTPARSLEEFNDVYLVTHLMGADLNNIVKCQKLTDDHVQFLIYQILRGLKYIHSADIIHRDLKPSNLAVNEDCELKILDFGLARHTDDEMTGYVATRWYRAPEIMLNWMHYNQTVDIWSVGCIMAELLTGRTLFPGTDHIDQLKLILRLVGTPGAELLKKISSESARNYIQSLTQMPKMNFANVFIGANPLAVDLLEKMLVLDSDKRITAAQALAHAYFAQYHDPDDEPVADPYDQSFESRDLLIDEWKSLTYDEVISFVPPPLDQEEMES

As a reminder, the IC50 is the concentration needed to halve the response being measured. As for `Cc1cccc(-c2nn3c(c2-c2ccnc4ccc(C(N)=O)cc24)CCC3)n1` [LY2157299], the IC50 in experiment [1] was 0.379 µM; in experiment [2] it was 9.9 µM.
